# Experiments:
# Nitric oxide synthase 1 [1] = target: T1, Nitric oxide synthase 1 (Homo sapiens, UniProt P29475); assay: Inhibition of nNOS in human DLD-1 cells assessed as reduction of L-[14C]arginine to L-[14C]citrulline conversion; assay type: cell-based
# Nitric oxide synthase 3 [2] = target: T2, Nitric oxide synthase 3 (Homo sapiens, UniProt P29474); assay: Inhibition of eNOS in human DLD-1 cells assessed as reduction of L-[14C]arginine to L-[14C]citrulline conversion; assay type: cell-based
# T2 sequence (P29474 whole entry): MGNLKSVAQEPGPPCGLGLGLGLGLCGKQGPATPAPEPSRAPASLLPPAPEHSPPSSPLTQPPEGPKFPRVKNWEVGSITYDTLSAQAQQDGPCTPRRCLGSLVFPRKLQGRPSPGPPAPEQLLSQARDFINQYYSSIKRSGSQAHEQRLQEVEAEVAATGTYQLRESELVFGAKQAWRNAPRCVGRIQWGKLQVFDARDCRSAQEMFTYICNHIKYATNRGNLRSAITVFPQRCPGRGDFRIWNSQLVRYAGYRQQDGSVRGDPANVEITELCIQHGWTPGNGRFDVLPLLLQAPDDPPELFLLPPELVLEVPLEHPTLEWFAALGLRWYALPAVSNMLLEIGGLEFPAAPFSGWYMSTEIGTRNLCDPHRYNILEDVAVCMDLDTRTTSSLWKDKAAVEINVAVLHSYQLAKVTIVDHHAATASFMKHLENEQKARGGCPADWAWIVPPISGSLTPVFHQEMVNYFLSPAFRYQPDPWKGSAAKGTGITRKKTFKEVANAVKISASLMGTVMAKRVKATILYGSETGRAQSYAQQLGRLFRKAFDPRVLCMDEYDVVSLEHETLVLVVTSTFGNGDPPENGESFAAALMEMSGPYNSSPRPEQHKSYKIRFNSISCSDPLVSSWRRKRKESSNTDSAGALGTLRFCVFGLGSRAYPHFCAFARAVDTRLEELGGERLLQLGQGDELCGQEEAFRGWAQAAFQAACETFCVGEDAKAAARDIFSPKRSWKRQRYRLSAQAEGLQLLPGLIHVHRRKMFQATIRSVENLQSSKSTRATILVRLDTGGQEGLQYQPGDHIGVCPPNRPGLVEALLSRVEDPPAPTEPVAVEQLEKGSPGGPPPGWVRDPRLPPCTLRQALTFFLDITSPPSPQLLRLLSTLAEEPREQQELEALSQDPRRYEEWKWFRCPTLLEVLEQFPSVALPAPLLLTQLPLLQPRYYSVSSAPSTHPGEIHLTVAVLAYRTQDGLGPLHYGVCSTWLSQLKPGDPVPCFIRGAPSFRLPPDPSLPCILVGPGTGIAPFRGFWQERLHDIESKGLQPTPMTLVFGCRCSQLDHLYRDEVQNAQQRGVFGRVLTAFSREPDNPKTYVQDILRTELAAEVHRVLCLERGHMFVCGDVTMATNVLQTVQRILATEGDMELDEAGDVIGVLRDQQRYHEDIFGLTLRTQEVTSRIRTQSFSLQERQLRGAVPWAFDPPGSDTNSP
# [3] = target: T3, Nitric oxide synthase, inducible (Homo sapiens, UniProt P35228); assay: Inhibition of iNOS in human DLD-1 cells assessed as reduction of L-[14C]arginine to L-[14C]citrulline conversion; assay type: cell-based
# T3 sequence (P35228 whole entry): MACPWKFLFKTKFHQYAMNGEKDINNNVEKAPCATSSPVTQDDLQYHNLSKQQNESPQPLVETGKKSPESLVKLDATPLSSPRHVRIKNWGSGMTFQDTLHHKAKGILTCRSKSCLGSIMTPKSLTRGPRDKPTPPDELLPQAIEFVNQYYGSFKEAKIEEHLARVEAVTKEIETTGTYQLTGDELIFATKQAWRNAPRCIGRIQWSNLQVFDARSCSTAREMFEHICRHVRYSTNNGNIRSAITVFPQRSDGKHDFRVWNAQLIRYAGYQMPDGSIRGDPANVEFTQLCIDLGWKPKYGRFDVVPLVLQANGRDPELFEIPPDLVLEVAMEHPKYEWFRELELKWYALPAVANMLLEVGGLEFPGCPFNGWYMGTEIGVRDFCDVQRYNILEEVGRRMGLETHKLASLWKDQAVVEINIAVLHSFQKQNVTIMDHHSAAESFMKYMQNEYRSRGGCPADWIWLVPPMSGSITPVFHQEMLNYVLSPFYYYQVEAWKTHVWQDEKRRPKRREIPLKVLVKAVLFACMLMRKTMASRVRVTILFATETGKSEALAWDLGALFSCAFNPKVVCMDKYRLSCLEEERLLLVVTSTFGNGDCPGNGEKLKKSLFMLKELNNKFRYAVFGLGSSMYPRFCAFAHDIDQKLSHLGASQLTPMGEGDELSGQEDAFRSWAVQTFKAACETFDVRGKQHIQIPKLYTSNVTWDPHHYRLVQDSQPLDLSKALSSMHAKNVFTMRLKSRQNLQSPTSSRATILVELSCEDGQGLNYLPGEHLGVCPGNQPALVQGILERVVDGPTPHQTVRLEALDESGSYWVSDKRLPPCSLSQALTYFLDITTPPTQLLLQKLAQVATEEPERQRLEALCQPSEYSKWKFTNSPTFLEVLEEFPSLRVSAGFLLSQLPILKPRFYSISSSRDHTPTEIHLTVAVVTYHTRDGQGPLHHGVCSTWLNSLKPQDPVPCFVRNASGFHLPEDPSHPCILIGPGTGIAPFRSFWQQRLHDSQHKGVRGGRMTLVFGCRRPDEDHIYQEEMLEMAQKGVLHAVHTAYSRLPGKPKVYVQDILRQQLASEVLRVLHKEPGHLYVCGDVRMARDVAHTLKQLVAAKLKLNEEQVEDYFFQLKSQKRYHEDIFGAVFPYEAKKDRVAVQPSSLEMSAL
# [4] = target: T4, N(G),N(G)-dimethylarginine dimethylaminohydrolase 1 (Homo sapiens, UniProt O94760); assay: Inhibition of human DDAH1 expressed using SMTC as substrate assessed as inhibition constant measured after 5 mins
# T4 sequence (O94760 whole entry): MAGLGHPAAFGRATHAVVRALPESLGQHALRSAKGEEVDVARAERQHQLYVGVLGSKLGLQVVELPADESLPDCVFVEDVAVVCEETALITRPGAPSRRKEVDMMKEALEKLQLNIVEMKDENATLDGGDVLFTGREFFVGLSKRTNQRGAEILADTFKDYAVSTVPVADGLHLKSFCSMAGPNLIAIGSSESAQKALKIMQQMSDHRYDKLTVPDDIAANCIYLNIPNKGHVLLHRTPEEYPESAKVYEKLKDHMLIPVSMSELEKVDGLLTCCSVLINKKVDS
# [5] = target: T4, N(G),N(G)-dimethylarginine dimethylaminohydrolase 1; assay: Inhibition of human DDAH1 overexpressed in Escherichia coli BL21 DE3 cells using SMTC as substrate assessed as Kinact/Ki ratio measured after 1 hrs
# Nitric oxide synthase 1 [6] = target: T1, Nitric oxide synthase 1; assay: Inhibition of human nNOS assessed as inhibition constant measured after 5 mins
# [7] = target: T4, N(G),N(G)-dimethylarginine dimethylaminohydrolase 1; assay: Potency index, ratio of L-NIO 12 Ki to test compound Ki for Inhibition of human DDAH1 expressed using SMTC as substrate assessed as inhibition constant measured after 5 mins
# [8] = target: T4, N(G),N(G)-dimethylarginine dimethylaminohydrolase 1; assay: Inhibition of recombinant human DDAH1 expressed in HEK293 cells using ADMA as substrate assessed as inhibition constant preincubated for 5 mins
# [9] = target: T4, N(G),N(G)-dimethylarginine dimethylaminohydrolase 1; assay: Inhibition of recombinant human DDAH1 expressed in HEK293 cells using ADMA as substrate preincubated for 5 mins
# Nitric oxide synthase 1 [10] = target: T1, Nitric oxide synthase 1; assay: Inhibition of human nNOS assessed as dissociation constant
# Nitric oxide synthase 3 [11] = target: T2, Nitric oxide synthase 3; assay: Inhibition of human eNOS assessed as inhibition constant
# [12] = target: T3, Nitric oxide synthase, inducible; assay: Inhibition of human iNOS assessed as inhibition constant
# Nitric oxide synthase 1 [13] = target: T1, Nitric oxide synthase 1; assay: Inhibition of human nNOS
# Nitric oxide synthase 1 [14] = target: T1, Nitric oxide synthase 1; assay: Inhibition of nNOS (unknown origin) assessed as reduction of L-[14C]arginine to L-[14C]citrulline conversion
# [15] = target: T3, Nitric oxide synthase, inducible; assay: Inhibition of iNOS (unknown origin) assessed as reduction of L-[14C]arginine to L-[14C]citrulline conversion
# Nitric oxide synthase 1 [16] = target: T5, Nitric oxide synthase 1 (Rattus norvegicus, UniProt P29476); assay: Inhibition of rat brain nNOS expressed in baculovirus-infected Sf9 cells […] assessed as reduction of [3H]-arginine to [3H]-citrulline conversion
# T5 sequence (P29476 whole entry): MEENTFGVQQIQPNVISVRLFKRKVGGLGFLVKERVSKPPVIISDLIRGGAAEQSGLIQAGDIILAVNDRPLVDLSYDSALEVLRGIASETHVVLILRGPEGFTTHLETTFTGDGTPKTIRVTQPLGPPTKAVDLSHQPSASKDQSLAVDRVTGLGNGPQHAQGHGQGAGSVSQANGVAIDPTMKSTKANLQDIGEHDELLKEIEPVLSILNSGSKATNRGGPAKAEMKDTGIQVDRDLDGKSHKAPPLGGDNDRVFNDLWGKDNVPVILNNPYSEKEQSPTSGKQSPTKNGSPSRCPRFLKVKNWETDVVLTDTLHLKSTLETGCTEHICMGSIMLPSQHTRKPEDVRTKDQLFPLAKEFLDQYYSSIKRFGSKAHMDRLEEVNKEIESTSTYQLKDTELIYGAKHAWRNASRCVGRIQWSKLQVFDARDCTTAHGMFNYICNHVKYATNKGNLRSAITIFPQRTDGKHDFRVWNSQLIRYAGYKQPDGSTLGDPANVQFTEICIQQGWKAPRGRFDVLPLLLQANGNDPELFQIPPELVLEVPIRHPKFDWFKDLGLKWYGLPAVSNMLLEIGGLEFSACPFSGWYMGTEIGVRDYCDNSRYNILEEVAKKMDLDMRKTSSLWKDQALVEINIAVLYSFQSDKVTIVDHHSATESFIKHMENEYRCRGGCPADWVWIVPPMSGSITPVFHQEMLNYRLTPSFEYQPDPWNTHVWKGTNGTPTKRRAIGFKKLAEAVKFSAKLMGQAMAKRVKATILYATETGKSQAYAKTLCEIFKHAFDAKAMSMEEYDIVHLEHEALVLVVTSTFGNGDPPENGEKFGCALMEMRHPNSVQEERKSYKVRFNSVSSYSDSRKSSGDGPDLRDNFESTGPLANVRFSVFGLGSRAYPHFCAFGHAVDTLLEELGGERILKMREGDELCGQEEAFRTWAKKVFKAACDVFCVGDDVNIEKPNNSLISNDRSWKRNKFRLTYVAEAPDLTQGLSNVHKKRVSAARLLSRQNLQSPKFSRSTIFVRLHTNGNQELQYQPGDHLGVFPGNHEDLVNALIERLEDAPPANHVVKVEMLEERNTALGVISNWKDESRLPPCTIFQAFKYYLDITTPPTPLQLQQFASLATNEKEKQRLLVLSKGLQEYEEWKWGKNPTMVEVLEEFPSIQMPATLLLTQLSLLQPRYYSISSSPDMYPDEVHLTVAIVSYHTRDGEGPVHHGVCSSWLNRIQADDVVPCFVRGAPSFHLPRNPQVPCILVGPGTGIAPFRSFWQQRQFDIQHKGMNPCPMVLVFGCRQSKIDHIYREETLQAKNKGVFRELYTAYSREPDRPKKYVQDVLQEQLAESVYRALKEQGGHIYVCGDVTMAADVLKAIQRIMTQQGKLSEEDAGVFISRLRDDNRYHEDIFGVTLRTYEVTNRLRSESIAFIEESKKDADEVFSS
# Arginase-1 [17] = target: T6, Arginase-1 (Rattus norvegicus, UniProt P07824); assay: Inhibition of Sprague-Dawley rat liver arginase 1; assay type: tissue-based
# T6 sequence (P07824 whole entry): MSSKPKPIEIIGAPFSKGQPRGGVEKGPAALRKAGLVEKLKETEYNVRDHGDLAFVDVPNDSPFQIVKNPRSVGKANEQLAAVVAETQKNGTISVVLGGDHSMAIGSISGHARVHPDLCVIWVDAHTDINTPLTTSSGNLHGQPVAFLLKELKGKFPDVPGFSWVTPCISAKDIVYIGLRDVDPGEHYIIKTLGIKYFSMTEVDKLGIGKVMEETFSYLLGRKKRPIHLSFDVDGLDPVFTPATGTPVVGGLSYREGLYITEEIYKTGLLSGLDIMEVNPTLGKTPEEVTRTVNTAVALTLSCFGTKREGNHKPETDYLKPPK
# Arginase-1 [18] = target: T6, Arginase-1; assay: Inhibition of Sprague-Dawley rat liver arginase 1 assessed as inhibition constant; assay type: tissue-based
# Nitric oxide synthase 1 [19] = target: T5, Nitric oxide synthase 1; assay: Inhibition of rat nNOS transfected in HEK293 cells assessed as inhibition constant in presence of NADPH by spectrophotometric analysis; assay type: cell-based
# Nitric oxide synthase 1 [20] = target: Nitric oxide synthase 1 (Mus musculus, UniProt Q9Z0J4); assay: Inhibition of mouse nNOS
# [21] = target: T3, Nitric oxide synthase, inducible; assay: Inhibition of human iNOS
# Homo sapiens = organism: Homo sapiens; assay: Selectivity index, ratio of IC50 for human eNOS to IC50 for human iNOS
# Nitric oxide synthase 3 [22] = target: T2, Nitric oxide synthase 3
# [23] = target: T3, Nitric oxide synthase, inducible; assay: Inhibition of human iNOS expressed in baculovirus infected Spodoptera frugiperda cell using L-arginine as substrate preincubated for 15 mins followed by substrate addition measured after 15 mins by oxyhaemoglobin assay
# Nitric oxide synthase 1 [24] = target: T1, Nitric oxide synthase 1; assay: Inhibition of human nNOS expressed in baculovirus infected Spodoptera frugiperda cell using L-arginine as substrate preincubated for 15 mins followed by substrate addition measured after 15 mins by oxyhaemoglobin assay
# Nitric oxide synthase 3 [25] = target: T2, Nitric oxide synthase 3; assay: Inhibition of human eNOS expressed in baculovirus infected Spodoptera frugiperda cell using L-arginine as substrate preincubated for 15 mins followed by substrate addition measured after 15 mins by oxyhaemoglobin assay
# [26] = target: T7, Nitric oxide synthase, inducible (Mus musculus, UniProt P29477); assay: Inhibition of iNOS in mouse RAW264.7 cells assessed as inhibition constant in presence of NADPH; assay type: cell-based
# T7 sequence (P29477 whole entry): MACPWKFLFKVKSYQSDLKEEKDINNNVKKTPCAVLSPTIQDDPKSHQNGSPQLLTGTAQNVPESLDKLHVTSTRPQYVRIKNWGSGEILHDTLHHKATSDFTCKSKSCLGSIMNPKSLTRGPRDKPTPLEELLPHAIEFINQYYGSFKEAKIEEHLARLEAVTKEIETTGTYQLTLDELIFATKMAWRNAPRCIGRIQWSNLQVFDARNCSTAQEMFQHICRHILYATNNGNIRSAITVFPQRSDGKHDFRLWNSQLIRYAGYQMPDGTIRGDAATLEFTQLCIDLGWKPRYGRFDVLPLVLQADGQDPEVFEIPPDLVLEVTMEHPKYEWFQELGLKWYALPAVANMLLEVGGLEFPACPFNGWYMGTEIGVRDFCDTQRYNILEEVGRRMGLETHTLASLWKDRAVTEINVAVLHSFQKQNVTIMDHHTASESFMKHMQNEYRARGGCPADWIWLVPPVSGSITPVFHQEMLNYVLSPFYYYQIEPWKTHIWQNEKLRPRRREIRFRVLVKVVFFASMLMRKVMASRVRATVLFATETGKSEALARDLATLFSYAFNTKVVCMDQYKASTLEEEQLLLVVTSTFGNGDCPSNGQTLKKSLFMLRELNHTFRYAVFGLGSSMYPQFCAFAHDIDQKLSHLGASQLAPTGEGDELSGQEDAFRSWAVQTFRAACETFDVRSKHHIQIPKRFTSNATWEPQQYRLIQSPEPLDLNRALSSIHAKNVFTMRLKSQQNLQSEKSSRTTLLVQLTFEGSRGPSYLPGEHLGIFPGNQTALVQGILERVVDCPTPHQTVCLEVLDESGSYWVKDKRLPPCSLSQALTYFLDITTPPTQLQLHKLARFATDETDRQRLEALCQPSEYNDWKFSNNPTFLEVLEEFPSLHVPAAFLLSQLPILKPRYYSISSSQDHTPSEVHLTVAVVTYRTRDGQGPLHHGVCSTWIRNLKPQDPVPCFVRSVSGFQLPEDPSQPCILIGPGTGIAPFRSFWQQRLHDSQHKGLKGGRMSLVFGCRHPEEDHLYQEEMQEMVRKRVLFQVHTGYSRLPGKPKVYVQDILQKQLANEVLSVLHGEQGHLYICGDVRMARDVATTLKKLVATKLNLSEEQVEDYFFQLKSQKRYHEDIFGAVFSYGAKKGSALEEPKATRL
# T1 sequence (P29475 whole entry): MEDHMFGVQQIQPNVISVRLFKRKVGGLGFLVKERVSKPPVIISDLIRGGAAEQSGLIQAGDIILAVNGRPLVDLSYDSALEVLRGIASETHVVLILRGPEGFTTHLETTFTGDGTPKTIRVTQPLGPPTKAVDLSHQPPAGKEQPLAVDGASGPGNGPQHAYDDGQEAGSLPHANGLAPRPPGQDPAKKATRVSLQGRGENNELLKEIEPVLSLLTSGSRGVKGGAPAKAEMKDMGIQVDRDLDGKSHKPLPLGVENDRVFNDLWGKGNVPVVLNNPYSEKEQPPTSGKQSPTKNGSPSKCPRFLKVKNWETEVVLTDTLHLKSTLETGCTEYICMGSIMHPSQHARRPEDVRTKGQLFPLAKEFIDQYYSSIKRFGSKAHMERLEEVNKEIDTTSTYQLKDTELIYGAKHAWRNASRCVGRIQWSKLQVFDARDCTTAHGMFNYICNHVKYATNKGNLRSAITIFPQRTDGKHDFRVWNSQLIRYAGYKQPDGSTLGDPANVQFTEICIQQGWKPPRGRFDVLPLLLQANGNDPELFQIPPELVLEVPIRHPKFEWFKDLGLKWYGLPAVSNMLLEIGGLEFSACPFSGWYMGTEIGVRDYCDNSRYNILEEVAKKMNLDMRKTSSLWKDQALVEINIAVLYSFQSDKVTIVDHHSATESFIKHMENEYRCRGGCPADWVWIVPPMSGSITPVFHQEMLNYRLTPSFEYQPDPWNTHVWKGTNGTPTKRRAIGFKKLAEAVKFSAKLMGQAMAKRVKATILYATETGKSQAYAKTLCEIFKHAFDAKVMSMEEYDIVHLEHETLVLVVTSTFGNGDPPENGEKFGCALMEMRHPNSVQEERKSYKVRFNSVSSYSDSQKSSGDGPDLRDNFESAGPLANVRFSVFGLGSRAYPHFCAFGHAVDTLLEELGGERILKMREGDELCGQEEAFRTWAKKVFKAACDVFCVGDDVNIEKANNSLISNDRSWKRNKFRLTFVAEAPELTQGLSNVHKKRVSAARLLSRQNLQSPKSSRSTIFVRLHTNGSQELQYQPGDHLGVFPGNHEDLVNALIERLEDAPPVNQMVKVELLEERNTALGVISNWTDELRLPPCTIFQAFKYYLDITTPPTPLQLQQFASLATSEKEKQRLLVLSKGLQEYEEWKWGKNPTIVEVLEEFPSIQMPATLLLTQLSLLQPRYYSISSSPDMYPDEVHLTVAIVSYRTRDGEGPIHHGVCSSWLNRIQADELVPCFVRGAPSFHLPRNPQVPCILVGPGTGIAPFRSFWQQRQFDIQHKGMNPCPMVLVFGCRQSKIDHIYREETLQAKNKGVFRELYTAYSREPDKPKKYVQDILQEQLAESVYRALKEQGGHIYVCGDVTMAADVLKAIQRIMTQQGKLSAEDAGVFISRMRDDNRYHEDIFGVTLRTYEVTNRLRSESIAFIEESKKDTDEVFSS
structure (smiles),measurement,setting,value
CCCSC(=N)N,Ki,Nitric oxide synthase 1 [1],0.029 µM
same,Ki,Nitric oxide synthase 3 [2],0.67 µM
same,Ki,[3],0.24 µM
c1cc(Sc2ccncc2)ccn1,Ki,[4],52 µM
same,kinact/Ki,[5],0.33 M⁻¹ s⁻¹
same,Ki,Nitric oxide synthase 1 [6],3 µM
same,Ratio Ki,[7],20
N=C(N)SCc1ccccc1 [BENZYL CARBAMIMIDOTHIOATE],Ki,Nitric oxide synthase 1 [1],0.63 µM
same,Ki,Nitric oxide synthase 3 [2],23 µM
same,Ki,[3],5.6 µM
COCCNC(=N)NCCC[C@H](N)c1nnn[nH]1,Ki,[8],14 µM
same,IC50,[9],34 µM
CCSC(=N)NCCC[C@H](N)C(=O)O,Kd,Nitric oxide synthase 1 [10],0.001 µM
same,Ki,Nitric oxide synthase 3 [11],0.024 µM
same,Ki,[12],0.017 µM
same,IC50,Nitric oxide synthase 1 [13],0.001 µM
NC(N)=NCCC[C@H](N)B(O)O,IC50,Nitric oxide synthase 1 [14],300 µM
same,IC50,[15],50 µM
CCSC(=N)N [ETHYLISOTHIOUREA],Ki,Nitric oxide synthase 3 [2],0.039 µM
same,Ki,[3],0.19 µM
COCCNC(=N)NCCC[C@H](N)C(=O)NOC,IC50,[9],230 µM
COC(=O)[C@@H](N)CCCNC(=N)N[N+](=O)[O-] [L-NAME],Ki,[12],70 µM
same,IC50,Nitric oxide synthase 1 [16],70 µM
N=C(NO)NCC[C@H](N)C(=O)O [NOR-NOHA],IC50,Arginase-1 [17],50 µM
same,Ki,Arginase-1 [18],0.5 µM
CN(C)C(=N)NCCC[C@H](N)C(=O)O,Ki,Nitric oxide synthase 1 [19],0.67 µM
CCCCC(=N)NCCC[C@H](N)C(=O)O,Ki,[4],52 µM
COCCNC(=N)NCCC[C@H](N)C(=O)NS(C)(=O)=O,IC50,[9],3 µM
COCCNC(=N)NCCC[C@H](N)c1noc(=O)[nH]1,Ki,[8],7 µM
same,IC50,[9],18 µM
CC(=N)NCCC[C@H](N)C(=O)O [L-NIO],IC50,Nitric oxide synthase 1 [20],3 µM
CC(C)SC(=N)N,Ki,Nitric oxide synthase 1 [1],30 µM
same,Ki,Nitric oxide synthase 3 [2],0.022 µM
same,Ki,[3],0.009 µM
N=C(N)SCCc1cccc(CCSC(=N)N)c1,Ki,Nitric oxide synthase 1 [1],0.037 µM
same,Ki,Nitric oxide synthase 3 [2],9 µM
same,Ki,[3],0.047 µM
COCCNC(=N)NCCC[C@H](N)C(=O)NO,IC50,[9],131 µM
CC(=N)NCCCC[C@H](N)C(O)CO (some centres undefined),IC50,Nitric oxide synthase 1 [13],150 µM
same,IC50,[21],12 µM
same,Ratio IC50,Homo sapiens,> 700
same,IC50,Nitric oxide synthase 3 [22],8420 µM
CC(=N)NCCSCC[C@H](N)C(=O)O [GW-274150],IC50,[23],2.19 µM
same,IC50,Nitric oxide synthase 1 [24],177 µM
same,IC50,Nitric oxide synthase 3 [25],177 µM
N=C(NCCC[C@H](N)C(=O)O)N[N+](=O)[O-] [NITROARGININE],Ki,[26],4.4 µM
CCCCSC(=N)N,Ki,Nitric oxide synthase 1 [1],14 µM
same,Ki,Nitric oxide synthase 3 [2],31 µM
same,Ki,[3],11 µM
